# Literature values as cited in paper PMC12451523 (RSC Advances, 2025).
# Target: fungal tyrosinase
# Settings: read-out: IC50 (μM) ± S.E., standard inhibitors, ref [50]
compound,measurement,value
O=C1O[C@H]([C@@H](O)CO)C(O)=C1O [Ascorbic acid],IC50,11.5 ± 1 µM
O=c1cc(CO)occ1O [Kojic acid],IC50,30.3 ± 1 µM
